Test results published in US20240059668A1, “THIOHYDROXYPYRIDINE CHELATES” (LUMIPHORE, INC., priority 2020, published 2024).

test: Stability testing of macrocyclic copper chelates: DTPA challenge analysed by reversed phase HPLC; format: physicochemical; settings: approximately 1 mM complex in 100 mM Tris-HCl buffer, pH 7.5, combined one to one with 55 mM DTPA, ambient temperature, 30 minutes
Experimental: Stability testing of macrocyclic copper chelates. (FIG. 1).
Example 13. Copper complexes 27, 39, and 44 were dissolved at approximately 1 mM concentration in 100 mM Tris-HCl buffer, pH 7.5. A solution of 55 mM diethylenetriaminepentaacetic acid (DTPA), pH 7.5 was prepared. Copper complexes were analyzed by reversed phase HPLC using an Agilent 1200 Series instrument equipped with a Zorbax Eclipse XDB-C18 4.6×150 mm 5 μm column. The method used an isocratic gradient of 0.1M triethylammonium bicarbonate, pH 7.5 (Solvent A) and 10-80% acetonitrile (Solvent B) as mobile phases. A solution of copper complex and DTPA solution combined in a ratio of one to one was prepared and mixed at ambient temperature for 30 minutes prior to analysis. Admixture of DTPA and copper complexes led to variable levels of dissociation of the copper complex, as quantified by the elution of the metal free ligand at shorter retention time.

Substance | stability of the copper complex in the presence of DTPA competitor (dissociation quantified by elution of the metal free ligand)
Copper complex of 16-(2-(4-(((S)-5-carboxy-5-(3-((S)-1,3-dicarboxypropyl)ureido)pentyl)carbamoyl)benzamido)ethyl)-1^6,11^6-dimercapto-2,10,12,20-tetraoxo-6- oxa-3,9,13,16,19-pentaaza-1,11(2,5)-dipyridin-1-iumacycloicosaphane 1^1,11^1-dioxide [Compound 27] | both are more stable than compound 27
Copper(II) complex of 4-((2-(2-aminoethoxy)ethyl)carbamoyl)-1^6,10^6-dimercapto-2,9,11,24-tetraoxo-16,19-dioxa-3,8,12,23-tetraaza-1,10(2,5)-dipyridin-1- iumacyclotetracosaphane 1^1,10^1-dioxide, trifluoroacetate salt [Compound 44] | more stable in the presence of DTPA competitor than complex 39
Copper(II) complex of 6-(2-aminoethyl)-1^6,11^6-dimercapto-2,10,12,25-tetraoxo-17,20-dioxa-3,6,9,13,24-pentaaza-1,11(2,5)-dipyridin-1-iumacyclopentacosaphane 1^1,11^1-dioxide [Compound 39] | more stable than compound 27
